In US20260098008A1, “COVALENT, CHEMOGENETIC ACTIVATORS FOR K2P POTASSIUM CHANNELS AND USES THEREOF” (THE REGENTS OF THE UNIVERSITY OF CALIFORNIA, priority 2022, published 2026):
Where a chain is given by its changes, count along the chain named.

Tests used:
K2P2.1 (TREK-1) = biological target: T1, K2P2.1 (TREK-1) (Mus musculus, UniProt P97438); assay: Two-electrode voltage clamp (TEVC) in Xenopus oocytes; format: cell-based; settings: for TREK-1 fold-activation: 20 uM, oocytes expressing TREK1; for TREK-1 activity class: Fold-activation at 20 uM in oocytes
T1 construct: expressed in transfected cells; host or cells: Xenopus laevis oocytes injected with mRNA (pGEMHE/pMO vector)
T1 sequence (P97438 1-411 isoform P97438-2): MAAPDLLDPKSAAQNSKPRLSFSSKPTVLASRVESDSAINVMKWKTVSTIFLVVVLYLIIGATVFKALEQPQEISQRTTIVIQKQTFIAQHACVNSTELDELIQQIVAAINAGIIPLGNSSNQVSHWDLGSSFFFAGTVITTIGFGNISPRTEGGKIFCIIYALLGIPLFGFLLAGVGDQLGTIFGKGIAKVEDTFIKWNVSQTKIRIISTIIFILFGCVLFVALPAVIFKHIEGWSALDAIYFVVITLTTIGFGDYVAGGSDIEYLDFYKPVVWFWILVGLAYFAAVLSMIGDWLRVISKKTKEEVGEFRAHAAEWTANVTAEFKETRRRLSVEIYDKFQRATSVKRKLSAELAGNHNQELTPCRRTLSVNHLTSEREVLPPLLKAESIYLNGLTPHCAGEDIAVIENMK
Excerpt: (§1) Mouse K2P2.1 (TREK-1) (Genbank accession number: NP_034737.2), mouse K2P10.1 (TREK-2) (NM_001316665.1), mouse K2P4.1 (TRAAK) (NM_008431.3), human K2P4.1 (TRAAK) (NM_033310.2) and mouse K2P18.1(TRESK) (NM_207261.3) were used for this study. Point mutations were introduced by site-directed mutagenesis using custom primers and confirmed by sequencing before use. For studies using Xenopus oocytes, K2P channels were subcloned into a previously reported pGEMHE/pMO vector (46). For expression in HEK293 cells, mouse K2P2.1 (TREK-1) and mutants were expressed from a previously described pIRES2-EGFP vector in HEK293 cells (46,47). K2P2.1 (TREK-1) tandems were constructed by connecting the open reading frames for the individual subunits with a linker encoding the […] (SEQ ID NO: 19) sequence. Tandems used for HEK293 cells included an N-terminal HA tag ([…] (SEQ ID NO: 20)) on the first subunit.
(§2) Xenopus laevis oocytes were harvested according to UCSF IACUC Protocol AN129690 and digested using collagenase (Worthington Biochemical Corporation, #LS004183, 0.8-1.0 mg/mL) in Ca^21-free ND96 (96 mM NaCl, 2 mM KCl, 3.8 mM MgCl2, 5 mM HEPES pH 7.4) immediately post-harvest, as previously reported (31,33). Oocytes were maintained at 18° C. in ND96 (96 mM NaCl, 2 mM KCl, 1.8 mM CaCl2, 2 mM MgCl2, 5 mM HEPES pH 7.4) supplemented with antibiotics (100 units mL^−1 penicillin, 100 μg mL^−1 streptomycin, 50 μg mL^−1 gentimycin) and used for experiments within one week of harvest.
(§3) Defolliculated stage V-VI oocytes were microinjected with 0.5-36 ng mRNA and currents were recorded within 16-48 h hours of injection.
(§4) For recordings, oocytes were impaled with borosilicate recording microelectrodes (0.4-2.0 MΩ resistance) backfilled with 3 M KCl and were subjected to constant perfusion of ND96 at a rate of 3 ml min^−1. Recording solutions containing K2P activators were prepared immediately prior to use from DMSO stocks (20-100 mM), with final DMSO concentrations of 0.1%. Currents were evoked from a −80 mV holding potential followed by a 300 ms ramp from −150 mV to +50 mV. Data were recorded using a GeneClamp 500B amplifier (MDS Analytical Technologies) controlled by pCLAMP8 software (Molecular Devices), and digitized at 1 kHz using Digidata 1332 Å digitizer (MDS Analytical Technologies). For each recording, control solution (ND96) was perfused over a single oocyte until current was stable before switching to solutions containing the test compounds at various concentrations. Representative traces and dose response plots were generated in GraphPad Prism 9.

[1] = biological target: T2, TREK-1^CG* (K2P2.1 (TREK-1) S131C) (Mus musculus, UniProt P97438, S146C); assay: TEVC in Xenopus oocytes; format: cell-based; settings: for TREK-1 GC activity class: Fold-activation at 20 uM in oocytes; for Fold-activation (I activator/I control) / Reversibility of activation on washout: 20 μM, Xenopus oocytes; for Fold-activation (I activator/I control): 0 mV
T2 construct: expressed in transfected cells; host or cells: Xenopus laevis oocytes injected with mRNA
T2 sequence (P97438 1-411 isoform P97438-2 S131C): T1 sequence (P97438 1-411 isoform P97438-2) with S131C
Excerpt: as §1, §2, §3, §4

| SMILES | TREK-1 fold-activation (K2P2.1 (TREK-1)) [fold] | TREK-1 activity class (K2P2.1 (TREK-1)) | other results |
| --- | --- | --- | --- |
| C#CCNC(=O)CC(=C)C(=O)Nc1ccc(C(=O)NCc2ccc(Cl)cc2Cl)cc1 [Entry 5] | 7.0 | +++ (>5 fold) |  |
| C#CCNC(=O)CCCC1=CC(=O)N(c2ccc(C(=O)NCc3ccc(Cl)cc3Cl)cc2)C1=O [Entry 18] |  |  | TREK-1 GC activity class [1]: ++ (2.5-5 fold) |
| CCOC(=O)CCCC1=CC(=O)N(c2ccc(C(=O)NCc3ccc(Cl)cc3Cl)cc2)C1=O [Entry 19] |  |  | TREK-1 GC activity class [1]: ++ (2.5-5 fold) |
| CC1=C(C)C(=O)N(c2ccc(C(=O)NCc3ccc(Cl)cc3Cl)cc2)C1=O [CAT335b] |  |  | Fold-activation (I activator/I control) [1]: 4.9±0.6 fold; Reversibility of activation on washout [1]: partially reversible with washout; Reversibility of activation after extended incubation ([1]; 1 hour incubation, washout with buffer): remained reversible |
| CC1=CC(=O)N(c2ccc(C(=O)NCc3ccc(Cl)cc3Cl)cc2)C1=O [CAT335a] |  |  | Fold-activation (I activator/I control) [1]: 7.4±0.7 fold; Reversibility of activation on washout [1]: irreversibly activate |
| C=CC(=O)Nc1cccc(C(=O)NCc2ccc(Cl)cc2Cl)c1 [Entry 10] | 1.2 |  |  |
| C#CCN(C(=O)C=C)c1ccc(C(=O)NCc2ccc(Cl)cc2Cl)cc1 [Entry 9] | 1.0 |  |  |
| O=C(NCc1ccc(Cl)cc1Cl)c1cccc(CB(O)O)c1 [Entry 23] | 1.0 |  |  |
| O=C(/C=C/C(F)(F)F)Nc1ccc(C(=O)NCc2ccc(Cl)cc2Cl)cc1 [Entry 7] | 1.0 |  |  |
| O=C(NCc1ccc(Cl)cc1Cl)c1ccc(N2C(=O)CCC2=O)cc1 [CAT335c] |  |  | Fold-activation (I activator/I control) (K2P2.1 (TREK-1); 20 μM, currents at 0 mV, Xenopus oocytes): 2.09 ± 0.14 fold; Fold-activation (I activator/I control) [1]: 5.0 ± 0.4 fold; Reversibility of activation on washout [1]: reversible |
| O=C(NCc1ccc(Cl)cc1Cl)c1cccc(B(O)O)c1 [Entry 24] | 1.3 | + (1.5-2.5 fold) |  |
| C=C1CC(=O)N(c2ccc(C(=O)NCc3ccc(Cl)cc3Cl)cc2)C1=O [Entry 17] |  | + (1.5-2.5 fold) | TREK-1 GC activity class [1]: ++ (2.5-5 fold) |
| C=C(CCC(=O)O)C(=O)Nc1ccc(C(=O)NCc2ccc(Cl)cc2Cl)cc1 [Entry 3] |  | ++ (2.5-5 fold) | TREK-1 GC activity class [1]: ++ (2.5-5 fold) |
| C/C=C/C(=O)Nc1ccc(C(=O)NCc2ccc(Cl)cc2Cl)cc1 [Entry 4] | 1.2 |  |  |
| C=C(CC(=O)O)C(=O)Nc1ccc(C(=O)NCc2ccc(Cl)cc2Cl)cc1 [Entry 6] | 1.7 to 2.5 | + (1.5-2.5 fold) |  |
| C#CCNC(=O)CCC(=C)C(=O)Nc1ccc(C(=O)NCc2ccc(Cl)cc2Cl)cc1 [Entry 2] |  | +++ (>5 fold) | TREK-1 GC activity class [1]: +++ (>5 fold) |
| N#CCC(=O)Nc1ccc(C(=O)NCc2ccc(Cl)cc2Cl)cc1 [Entry 8] | 3.6 | ++ (2.5-5 fold) |  |
| C=CC(=O)Nc1ccc(C(=O)NCc2ccc(Cl)cc2Cl)cc1 [Entry 1] |  | +++ (>5 fold) | TREK-1 GC activity class [1]: +++ (>5 fold) |
| O=C(NCc1ccc(Cl)cc1Cl)c1ccc(N2CCS2(=O)=O)cc1 [Entry 47] |  |  | TREK-1 GC activity class [1]: + (1.5-2.5 fold) |
| C=CS(=O)(=O)Nc1ccc(C(=O)NCc2ccc(Cl)cc2Cl)cc1 [Entry 11] | 1.3 |  |  |

Now from value to compound, other results behind:

| TREK-1 fold-activation (K2P2.1 (TREK-1)) [fold] | TREK-1 activity class (K2P2.1 (TREK-1)) | SMILES | other results |
| --- | --- | --- | --- |
| 1.0 |  | CN(Cc1ccc(Cl)cc1Cl)C(=O)c1ccc(NS(C)(=O)=O)cc1 [Entry 30] |  |
| 1.5 | + (1.5-2.5 fold) | CS(=O)(=O)Nc1ccc(C(=O)NCc2ccc(Cl)c(F)c2)cc1 [Entry 39] |  |
|  | + (1.5-2.5 fold) | O=C(NCc1ccc(Cl)cc1Cl)c1ccc(C(=O)N2CCS2(=O)=O)cc1 [Entry 48] | TREK-1 GC activity class [1]: + (1.5-2.5 fold) |
| 3.3 | ++ (2.5-5 fold) | CS(=O)(=O)Nc1ccc(C(=O)NCc2ccc(Br)cc2Cl)cc1 [Entry 41] |  |
| 1.6 | + (1.5-2.5 fold) | CS(=O)(=O)Nc1ccc2c(c1)OCCN(Cc1ccc(Cl)cc1Cl)C2=O [Entry 43] |  |
| 1.5 | + (1.5-2.5 fold) | O=C(NCc1ccc(Cl)cc1Cl)c1ccc(CB(O)O)cc1 [Entry 25] |  |
| 1.1 |  | Cc1cc(Cl)cc(Cl)c1CNC(=O)c1ccc(NS(C)(=O)=O)cc1 [Entry 40] |  |
| 2.5 | ++ (2.5-5 fold) | O=C(NCc1ccc(Cl)cc1Cl)c1ccc(NCC2CO2)cc1 (stereo not shown) [Entry 27] |  |
| 1.4 | + (1.5-2.5 fold) | CS(=O)(=O)Nc1ncc(C(=O)NCc2ccc(Cl)cc2Cl)cn1 [Entry 42] |  |
| 1.2 |  | CC(NC(=O)c1ccc(NC(=O)NC(=O)C(Cl)(Cl)Cl)cc1)c1ccc(Cl)cc1Cl (stereo not shown) [Entry 34] |  |
| 1.0 |  | CS(=O)(=O)Nc1ccc2c(c1)CCCN(Cc1ccc(Cl)cc1Cl)C2=O [Entry 44] |  |
| 3.3 | ++ (2.5-5 fold) | O=C(NCc1ccc(Cl)cc1Cl)c1ccc(NC(=O)C(F)(F)F)cc1 [Entry 28] |  |
| 1.2 |  | CC(NC(=O)c1ccc(NS(C)(=O)=O)cc1)c1ccc(Cl)cc1Cl (stereo not shown) [Entry 32] |  |
| 2.2 | ++ (2.5-5 fold) | CS(=O)(=O)Nc1cccc(C(=O)NCc2ccc(Cl)cc2Cl)c1 [Entry 33] |  |
| 4.8 | +++ (>5 fold) | CS(=O)(=O)Nc1ccc(C(=O)NCc2ccc(Cl)c(Cl)c2)cc1 [Entry 38] |  |
| 1.5 | + (1.5-2.5 fold) | CNS(=O)(=O)c1ccc(C(=O)NCc2ccc(Cl)c(Cl)c2)cc1 [Entry 37] |  |
| 3 | ++ (2.5-5 fold) | CNS(=O)(=O)c1ccc(C(=O)NCc2ccc(Cl)cc2Cl)cc1 [Entry 36] |  |
| 4 | +++ (>5 fold) | O=C(COCCOCCNC(=S)Nc1ccc2c(c1)C(=O)OC21c2ccc(O)cc2Oc2cc(O)ccc21)Nc1ccc(C(=O)NCc2ccc(Cl)cc2Cl)cc1 [Entry 46] |  |
| 6.4 | +++ (>5 fold) | NC(=O)Nc1ccc(C(=O)NCc2ccc(Cl)cc2Cl)cc1 [Entry 35] |  |
| 1.6 | + (1.5-2.5 fold) | CC1(C)OB(Cc2ccc(C(=O)NCc3ccc(Cl)cc3Cl)cc2)OC1(C)C [Entry 26] |  |
| 1.1 |  | CS(=O)(=O)Nc1ccc2c(c1)CCN(Cc1ccc(Cl)cc1Cl)C2=O [Entry 45] |  |
| 1.3 |  | CC(NC(=O)c1ccc(NC(N)=O)cc1)c1ccc(Cl)cc1Cl (stereo not shown) [Entry 31] |  |
